Laboratory results reported in ChEMBL document CHEMBL1909046, “DrugMatrix in vitro pharmacology data”.

Assays:
Calcitonin receptor = target: T1, Calcitonin receptor (Homo sapiens, UniProt P30988); type: cell membranes, Membrane; settings: t47d; note: in other assays of this panel Not Active means under 50% inhibition at 10 µM
T1 sequence (P30988 whole entry): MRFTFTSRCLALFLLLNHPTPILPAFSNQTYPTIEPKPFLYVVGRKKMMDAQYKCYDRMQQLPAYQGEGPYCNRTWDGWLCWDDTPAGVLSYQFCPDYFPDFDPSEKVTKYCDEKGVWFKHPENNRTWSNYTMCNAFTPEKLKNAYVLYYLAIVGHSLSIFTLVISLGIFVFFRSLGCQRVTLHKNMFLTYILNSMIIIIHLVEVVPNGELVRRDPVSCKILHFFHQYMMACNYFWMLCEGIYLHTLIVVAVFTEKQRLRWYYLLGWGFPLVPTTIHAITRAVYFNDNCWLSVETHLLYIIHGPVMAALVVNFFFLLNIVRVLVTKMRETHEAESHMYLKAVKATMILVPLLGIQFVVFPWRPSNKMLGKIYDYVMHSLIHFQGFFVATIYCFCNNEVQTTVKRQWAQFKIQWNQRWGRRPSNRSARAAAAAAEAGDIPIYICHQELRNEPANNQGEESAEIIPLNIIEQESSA

[1] = target: 5-hydroxytryptamine receptor 2B (Homo sapiens, UniProt P41595); type: cell membranes, CHO-K1, Membrane; settings: cho-k1; note: in other assays of this panel Not Active means under 50% inhibition at 10 µM
5-hydroxytryptamine receptor 2B, sequence (P41595 whole entry): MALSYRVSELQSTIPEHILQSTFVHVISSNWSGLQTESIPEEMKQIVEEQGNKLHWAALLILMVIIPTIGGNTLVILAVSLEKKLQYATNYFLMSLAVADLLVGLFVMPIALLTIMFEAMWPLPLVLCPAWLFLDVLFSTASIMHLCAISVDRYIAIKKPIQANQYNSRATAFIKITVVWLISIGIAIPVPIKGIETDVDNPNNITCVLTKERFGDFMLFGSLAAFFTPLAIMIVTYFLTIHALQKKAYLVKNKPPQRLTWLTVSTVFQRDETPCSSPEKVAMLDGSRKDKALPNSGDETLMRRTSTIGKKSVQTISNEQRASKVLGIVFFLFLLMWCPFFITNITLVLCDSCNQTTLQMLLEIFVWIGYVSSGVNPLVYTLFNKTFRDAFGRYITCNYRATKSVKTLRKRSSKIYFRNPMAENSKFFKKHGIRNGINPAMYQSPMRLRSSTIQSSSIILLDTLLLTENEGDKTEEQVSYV

[2] = DRUGMATRIX: Tumor Necrosis Factor (TNF), Non-Selective radioligand binding (ligand: [125I] TNF-alpha); type: cell membranes, Membrane; settings: u-937; Not Active = under 50% inhibition at 10 µM
D(3) dopamine receptor = D(3) dopamine receptor (Homo sapiens, UniProt P35462); test: DRUGMATRIX: Dopamine D3 radioligand binding (ligand: [3H] Spiperone); type: cell membranes, CHO, Membrane
D(3) dopamine receptor, sequence (P35462 whole entry): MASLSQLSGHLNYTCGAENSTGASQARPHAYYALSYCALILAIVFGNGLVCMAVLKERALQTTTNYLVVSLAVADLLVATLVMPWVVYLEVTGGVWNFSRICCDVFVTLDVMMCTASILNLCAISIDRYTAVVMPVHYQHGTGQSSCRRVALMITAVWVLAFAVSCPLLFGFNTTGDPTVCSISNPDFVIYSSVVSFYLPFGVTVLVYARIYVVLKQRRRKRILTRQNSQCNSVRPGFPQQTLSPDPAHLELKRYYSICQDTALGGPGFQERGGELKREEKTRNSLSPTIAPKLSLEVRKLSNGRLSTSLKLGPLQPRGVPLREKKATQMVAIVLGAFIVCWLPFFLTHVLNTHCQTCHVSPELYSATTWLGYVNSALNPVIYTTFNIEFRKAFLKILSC

[3] = target: Kappa-type opioid receptor (Homo sapiens, UniProt P41145); test: DRUGMATRIX: Opiate kappa (OP2, KOP) radioligand binding (ligand: [3H] Diprenorphine); type: cell membranes, HEK293, Membrane; settings: Not Active = under 50% inhibition at 10 µM
Kappa-type opioid receptor, sequence (P41145 whole entry): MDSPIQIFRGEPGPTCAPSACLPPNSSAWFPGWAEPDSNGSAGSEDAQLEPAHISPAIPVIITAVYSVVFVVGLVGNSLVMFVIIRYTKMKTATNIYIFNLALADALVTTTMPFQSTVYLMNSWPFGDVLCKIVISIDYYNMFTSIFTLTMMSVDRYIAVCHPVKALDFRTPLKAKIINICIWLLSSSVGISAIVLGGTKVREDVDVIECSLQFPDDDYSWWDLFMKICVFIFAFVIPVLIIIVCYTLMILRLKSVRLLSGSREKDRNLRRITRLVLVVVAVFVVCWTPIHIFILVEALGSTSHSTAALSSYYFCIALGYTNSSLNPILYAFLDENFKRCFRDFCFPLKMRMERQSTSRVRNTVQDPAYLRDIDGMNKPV

[4] = target: Platelet-activating factor receptor (Homo sapiens, UniProt P25105); type: tissue-based; note: in other assays of this panel Not Active means under 50% inhibition at 10 µM
Platelet-activating factor receptor, sequence (P25105 whole entry): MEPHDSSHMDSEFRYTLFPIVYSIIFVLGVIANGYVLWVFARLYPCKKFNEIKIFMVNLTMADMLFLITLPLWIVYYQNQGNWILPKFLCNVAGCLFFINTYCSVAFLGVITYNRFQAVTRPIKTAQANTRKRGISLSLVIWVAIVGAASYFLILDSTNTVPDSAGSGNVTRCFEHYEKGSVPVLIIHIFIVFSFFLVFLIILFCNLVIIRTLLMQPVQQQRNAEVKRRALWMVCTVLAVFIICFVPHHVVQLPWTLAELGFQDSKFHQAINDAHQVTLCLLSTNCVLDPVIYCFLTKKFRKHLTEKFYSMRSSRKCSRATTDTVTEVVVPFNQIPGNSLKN

SMILES | IC50 (Calcitonin receptor) | IC50 [1] | IC50 [2] | Ki [2] | IC50 (D(3) dopamine receptor; cho) | IC50 ([3]; hek293) | IC50 [4] | IC50 (D(3) dopamine receptor; read-out: IC50) | Ki (D(3) dopamine receptor; read-out: Ki) | IC50 ([3]; read-out: IC50) | Ki ([3]; read-out: Ki)
C[C@H]1O[C@@H](O[C@H]2[C@@H](O)C[C@H](O[C@H]3[C@@H](O)C[C@H](O[C@H]4CC[C@@]5(C)[C@H](CC[C@@H]6[C@@H]5CC[C@]5(C)[C@@H](C7=CC(=O)OC7)CC[C@]65O)C4)O[C@@H]3C)O[C@@H]2C)C[C@H](O)[C@@H]1O [DIGITOXIN] | Not Active | Not Active | Not Active | Not Active | Not Active | Not Active | Not Active |  |  |  | 
C[N+](C)(C)CCO.[Cl-] [CHOLINE CHLORIDE] | Not Active | Not Active | Not Active | Not Active | Not Active | Not Active | Not Active |  |  |  | 
CN(C)c1ccc(C(=C2C=CC(=[N+](C)C)C=C2)c2ccc(N(C)C)cc2)cc1.[Cl-] [GENTIAN VIOLET] | Not Active | Not Active | Not Active | Not Active |  |  | Not Active | 831 nM | 282 nM | 1540 nM | 616 nM
O=S(=O)([O-])CCS.[Na+] [MESNA] | Not Active | Not Active | Not Active | Not Active | Not Active | Not Active | Not Active |  |  |  | 
O=C(O)Cc1ccccc1Nc1c(Cl)cccc1Cl [DICLOFENAC] | Not Active | Not Active | Not Active | Not Active | Not Active | Not Active | Not Active |  |  |  | 
COc1ccccc1C(=O)N1CCC(Cc2ccccc2)CC1 | Not Active | Not Active | Not Active | Not Active | Not Active | Not Active | Not Active |  |  |  | 
CCC1=C[C@@H]2CN(C1)Cc1c([nH]c3ccccc13)[C@@](C(=O)OC)(c1cc3c(cc1OC)N(C)[C@H]1[C@@](O)(C(=O)OC)[C@H](OC(C)=O)[C@]4(CC)C=CCN5CC[C@]31[C@@H]54)C2 [VINORELBINE] | Not Active | Not Active | Not Active | Not Active | Not Active | Not Active | Not Active |  |  |  | 
CCOC(=O)[C@H](CCc1ccccc1)N[C@H]1CCc2ccccc2N(CC(=O)O)C1=O [BENAZEPRIL] | Not Active | Not Active | Not Active | Not Active | Not Active | Not Active | Not Active |  |  |  | 
CCOC(=O)C(C)(C)Oc1ccc(Cl)cc1 [CLOFIBRATE] | Not Active | Not Active | Not Active | Not Active | Not Active | Not Active | Not Active |  |  |  | 
CC(=O)Nc1c(I)c(NC(C)=O)c(I)c(C(=O)O)c1I [DIATRIZOIC ACID] | Not Active | Not Active | Not Active | Not Active | Not Active | Not Active | Not Active |  |  |  | 
CCOC(=O)C1=C(C)NC(C)=C(C(=O)OC)C1c1cccc([N+](=O)[O-])c1 (configuration not stated) [NITRENDIPINE] | Not Active | Not Active | Not Active | Not Active | Not Active | Not Active | Not Active |  |  |  | 
O=C1CC[C@H](N2C(=O)c3ccccc3C2=O)C(=O)N1 | Not Active | Not Active | Not Active | Not Active | Not Active | Not Active | Not Active |  |  |  | 
C/C=C/C[C@@H](C)[C@@H](O)[C@H]1C(=O)N[C@@H](CC)C(=O)N(C)CC(=O)N(C)[C@@H](CC(C)C)C(=O)N[C@@H](C(C)C)C(=O)N(C)[C@@H](CC(C)C)C(=O)N[C@@H](C)C(=O)N[C@H](C)C(=O)N(C)[C@@H](CC(C)C)C(=O)N(C)[C@@H](CC(C)C)C(=O)N(C)[C@@H](C(C)C)C(=O)N1C [CYCLOSPORINE] | Not Active | Not Active | Not Active | Not Active | Not Active | Not Active | Not Active |  |  |  | 
CC(C)Cc1ccc(C(C)C(=O)O)cc1 (configuration not stated) [IBUPROFEN] | Not Active | Not Active | Not Active | Not Active | Not Active | Not Active | Not Active |  |  |  | 
CCCCN1CCCCC1C(=O)Nc1c(C)cccc1C.Cl (configuration not stated) [BUPIVACAINE HYDROCHLORIDE] | Not Active | Not Active | Not Active | Not Active | Not Active | Not Active | Not Active |  |  |  | 
